Assay: mn = molality of the nth substance listed, in mol/kg
Settings: 100 kPa, Liquid, Pycnometric method

O=C([O-])[O-].[Li+].[Li+] [lithium carbonate] + O
Settings | mass density [kg/m3]
283.15 K, m1 = 0.1933 | 1007.2
298.15 K, m1 = 0.1738 | 1003.8
303.15 K, m1 = 0.1676 | 1002.2
313.15 K, m1 = 0.1558 | 998.3
323.15 K, m1 = 0.1454 | 993.7
333.15 K, m1 = 0.1352 | 988.5
343.15 K, m1 = 0.1251 | 982.6
353.15 K, m1 = 0.1149 | 976.2
363.15 K, m1 = 0.106 | 969.4
368.15 K, m1 = 0.1015 | 965.2

— the NIST ThermoML archive (doi:10.1016/j.jct.2018.03.027)
